For seven compounds, IC50 and viability, T/C results are on record in PubChem BioAssay AID2060485 (Molecular Pharmacology Branch, DTP, NCI, 2025).

For this experiment, the system named is A375 multi-cell spheroids with HUVEC/MSC, viability. The experiment can be described thus: Anticancer human tumor A375 cell line growth inhibition [GQUAD].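 For all read-outs here: spheroids exposed to compounds for seven days before readout.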 The conditions noted are these: for viability, T/C: stronger effect = lower value. The source says: DNA G-quadruplex Stabilizer Agents in Combinations in Complex Spheroids
A high-throughput screen of multi-cell type tumor spheroids was designed to identify active combinations of DNA G-quadruplex stabilizer agents and targeted small molecules. Complex spheroids include a stromal component modeled by human endothelial cells (HUVEC) and fibroblasts modeled by human mesenchymal stem cells (MSCs). The concentration ranges selected for each drug and investigational agent were based upon clinically achievable concentrations if the clinical Cmax of the agent was known.
Compounds. The drugs and investigational agents: pidnarulex (CX-5461; NSC782164), APTO-253 (NSC789042), BRACO-19 (NSC847499), peposertib (NSC802822), ceralasertib (NSC780249), elimusertib (NSC800525), camonsertib (NSC841442), AZD-1390 (NSC803789), olaparib (NSC753686), talazoparib (NSC767125), ART-558 (NSC835418), sotorasib (NSC818433), MRTX-1133 (NSC836407), SN-38 (NSC673596), topotecan (NSC609699), etoposide (NSC141540), doxorubicin (NSC123127), gemcitabine (NSC613327), 5-fluorouracil (NSC19893), paclitaxel (NSC125973), vemurafenib (NSC761431), panobinostat (NSC761190), R-306465 (JNJ-16241199; NSC773264), adavosertib (NSC754352), TP-3654 (NSC805149), carboplatin (NSC241240), KSQ-4279 (NSC840948), and staurosporine (NSC755774) were obtained from the National Cancer Institute (NCI) Developmental Therapeutics Program Chemical Repository (34). The FDA-approved anticancer drug set is available from the NCI Developmental Therapeutics Program. […] The stock solutions were prepared in dimethyl sulfoxide (DMSO, Sigma-Aldrich, St. Louis, MO, cat. D2650) at 800-fold the tested concentration and stored at -70 degrees C prior to their use. All drugs and investigational agents were tested over a range starting from a high concentration at or near the clinical Cmax and decreasing in half-log increments. If the clinical Cmax for an agent had not been determined, the highest concentration tested was 10 microM.
2.3 Cell Culture. All cells were maintained in an incubator at 37 degrees C and 5% CO2 with 95% humidity. The PDC lines were cultured according to standard operating procedures established by the NCI PDMR. All PDCs were thawed and cultured in Matrigel-coated flasks prepared with a working solution of 1X Ham's F-12 nutrient mix, without supplementation (Invitrogen, cat. 11765054), 100 U/mL penicillin-streptomycin (Invitrogen, cat. 15140122), and 2.5% Matrigel (Corning Inc., cat. 354248) for the first three passages. The 857933-349-R-J2-PDC line was cultured in 6C/Colon 1B media, which includes advanced DMEM/F-12 (Thermo Fisher Scientific, cat. 12634028), 10 mM HEPES (Thermo Fisher Scientific, cat. 15630080), 1X GlutaMAX supplement (Thermo Fisher Scientific, cat. 35050061), 0.1 mg/mL primocin (InvivoGen, cat. ant-pm-2), 10% defined fetal bovine serum, heat inactivated (HyClone Laboratories Inc., cat. SH30070.03HI), 50% L-WRN conditioned media (ATCC, cat. CRL-3276), 1.25 mM N-Acetyl-L-cysteine (Sigma-Aldrich, cat. A9165), 10 mM nicotinamide (Sigma-Aldrich, cat. N0636), 1X B-27 supplement (Thermo Fisher Scientific, cat. 17504044), 1X N-2 supplement (Thermo Fisher Scientific, cat. 17502048), 10 microM Y-27632 dihydrochloride (Tocris Bioscience, cat. 1254), and 50 ng/mL human EGF recombinant protein (Thermo Fisher Scientific, cat. PHG0311). The 485176-168-R4-J1-PDC line was cultured in Panc media, which includes all 6C/Colon 1B media components plus 100 ng/mL human FGF-10 (Thermo Fisher Scientific, cat. 100-26), 500 nM SB-431542 (Selleckchem, cat. S1067), and gastrin (Tocris, cat. 3006).
[…]

[1] abbreviates: curve of first compound, second compound 0.0316 µM.
Where [2] appears, read: curve of first compound, second compound 0.1 µM.
The mark [3] stands for this setting: curve of first compound, second compound 0.316 µM.
Setting [4] is: curve of first compound, second compound 1 µM.
[5] abbreviates: curve of first compound, second compound 3.16 µM.
The mark [6] stands for this setting: curve of first compound, second compound 10 µM.
The mark [7] stands for this setting: second compound 0.0316 µM, first compound 0.0316 µM.
Where [8] appears, read: second compound 0.0316 µM, first compound 0.1 µM.
[9] abbreviates: second compound 0.0316 µM, first compound 0.316 µM.
[10] abbreviates: second compound 0.0316 µM, first compound 1 µM.
Setting [11] is: second compound 0.0316 µM, first compound 3.16 µM.
Setting [12] is: second compound 0.0316 µM, first compound 10 µM.
Setting [13] is: second compound 0.1 µM, first compound 0.0316 µM.
Where [14] appears, read: second compound 0.1 µM, first compound 0.1 µM.
[15] abbreviates: second compound 0.1 µM, first compound 0.316 µM.
Where [16] appears, read: second compound 0.1 µM, first compound 1 µM.
Where [17] appears, read: second compound 0.1 µM, first compound 3.16 µM.
Where [18] appears, read: second compound 0.1 µM, first compound 10 µM.
[19] abbreviates: second compound 0.316 µM, first compound 0.0316 µM.
Where [20] appears, read: second compound 0.316 µM, first compound 0.1 µM.
Where [21] appears, read: second compound 0.316 µM, first compound 0.316 µM.
Setting [22] is: second compound 0.316 µM, first compound 1 µM.
[23] abbreviates: second compound 0.316 µM, first compound 3.16 µM.
[24] abbreviates: second compound 0.316 µM, first compound 10 µM.
The mark [25] stands for this setting: second compound 1 µM, first compound 0.0316 µM.
[26] abbreviates: second compound 1 µM, first compound 0.1 µM.
[27] abbreviates: second compound 1 µM, first compound 0.316 µM.
Setting [28] is: second compound 1 µM, first compound 1 µM.
Where [29] appears, read: second compound 1 µM, first compound 3.16 µM.
[30] abbreviates: second compound 1 µM, first compound 10 µM.
[31] abbreviates: second compound 3.16 µM, first compound 0.0316 µM.
Setting [32] is: second compound 3.16 µM, first compound 0.1 µM.
Where [33] appears, read: second compound 3.16 µM, first compound 0.316 µM.
The mark [34] stands for this setting: second compound 3.16 µM, first compound 1 µM.
Setting [35] is: second compound 3.16 µM, first compound 3.16 µM.
Where [36] appears, read: second compound 3.16 µM, first compound 10 µM.
[37] abbreviates: second compound 10 µM, first compound 0.0316 µM.
Where [38] appears, read: second compound 10 µM, first compound 0.1 µM.
The mark [39] stands for this setting: second compound 10 µM, first compound 0.316 µM.
The mark [40] stands for this setting: second compound 10 µM, first compound 1 µM.
Where [41] appears, read: second compound 10 µM, first compound 3.16 µM.
Where [42] appears, read: second compound 10 µM, first compound 10 µM.

Where “and” joins values, the source holds several entries; their conditions need not be identical. Identical values can stand only once.

Broadly, the IC50 is the concentration that gives 50% inhibition. The term viability, T/C denotes the ratio of treated to control. For the compound `C=CCn1c(=O)c2cnc(Nc3ccc(N4CCN(C)CC4)cc3)nc2n1-c1cccc(C(C)(C)O)n1` + Cc1[nH]c2ccc(F)cc2c1-c1nc2c3cccnc3c3ncccc3c2[nH]1, the 50% inhibitory concentration (IC50) runs as follows: under setting [1], 1040 nM; under setting [2], 1100 nM; under setting [3], 968 nM; under setting [4], 703 nM; under setting [5], 72.2 nM; under setting [6], 149 nM. Besides, the viability, T/C is, setting by setting: under setting [7], 108%; under setting [8], 94.2%; under setting [9], 93.6%; under setting [10], 51.6%; under setting [11], 11.5%; under setting [12], 4.8%. Moreover, the viability, T/C is, setting by setting: under setting [13], 106%; under setting [14], 94.2%; under setting [15], 94.2%; under setting [16], 52.7%; under setting [17], 15.4%; under setting [18], 6.47%. The viability, T/C was 104% under setting [19]; 103% under setting [20]; 93.3% under setting [21]; 48.8% under setting [22]; 12.4% under setting [23]; 6.56% under setting [24]. The viability, T/C was 101% under setting [25]; 104% under setting [26]; 80% under setting [27]; 36.8% under setting [28]; 12.3% under setting [29]; 8.03% under setting [30]. Further, the viability, T/C reads like this: under setting [31], 59.1%; under setting [32], 45.1%; under setting [33], 33.3%; under setting [34], 19.5%; under setting [35], 7.29%; under setting [36], 5.68%. The viability, T/C under setting [37] is 77.5%; the viability, T/C under setting [38] is 63.9%; the viability, T/C under setting [39] was 23.9%; the viability, T/C under setting [40] was 20.2%; the viability, T/C under setting [41] was 8.19%; the viability, T/C under setting [42] is 5.93%.
With `COc1cccc2c1C(=O)c1c(O)c3c(c(O)c1C2=O)CC(O)(C(=O)CO)CC3OC1CC(N)C(O)C(C)O1` (centres undefined), the viability, T/C was 93% and 102% and 100% (compound 0.0316 µM); 89.2% and 78.7% and 73.9% (compound 0.1 µM); 33.4% and 33.9% and 34.3% (compound 0.316 µM); 19.4% and 18.2% and 21.9% (compound 1 µM); 1.94% and 2.47% and 2.18% (compound 3.16 µM); 0.14% and 0.19% and 0.1% (compound 10 µM). Besides, the IC50 (curve of compound) was 231 nM and 221 nM and 215 nM.
For the compound `C=CCn1c(=O)c2cnc(Nc3ccc(N4CCN(C)CC4)cc3)nc2n1-c1cccc(C(C)(C)O)n1`, the viability, T/C runs as follows: (compound 0.0316 µM) 101% and 98.4% and 96.4%; (compound 0.1 µM) 104% and 102% and 96.9%; (compound 0.316 µM) 89.5% and 96.9% and 102%; (compound 1 µM) 48.4% and 59% and 66.4%; (compound 3.16 µM) 11.5% and 13.3% and 17.2%; (compound 10 µM) 5.76% and 7.73% and 8.28%. In addition, the IC50 (curve of compound) is 943 nM and 1250 nM and 1470 nM.
As for `Cn1ncnc1[C@H]1c2n[nH]c(=O)c3cc(F)cc(c23)N[C@@H]1c1ccc(F)cc1`, the viability, T/C was 93.9% and 104% and 90.5% (compound 0.000999 µM); 98% and 101% and 97% (compound 0.00316 µM); 104% and 103% and 98.8% (compound 0.00999 µM); 108% and 106% and 99.2% (compound 0.0316 µM); 112% and 104% and 98.9% (compound 0.0999 µM); 94.1% and 91.5% and 92.8% (compound 0.316 µM). The IC50 (curve of compound) was greater than 316 nM.
Consider `Cc1cccc(N(C)C(=O)C2C(O)CCN2c2nc(C)cc(C(F)(F)F)c2C#N)c1` (centres undefined) + Cc1[nH]c2ccc(F)cc2c1-c1nc2c3cccnc3c3ncccc3c2[nH]1, for which the IC50 is greater than 10000 nM under setting [1]; greater than 10000 nM under setting [2]; greater than 10000 nM under setting [3]; greater than 10000 nM under setting [4]; greater than 10000 nM under setting [5]; greater than 10000 nM under setting [6]. In addition, the viability, T/C was 102% under setting [7]; 102% under setting [8]; 94.8% under setting [9]; 98.6% under setting [10]; 95.5% under setting [11]; 95.2% under setting [12]. The viability, T/C by setting is: under setting [13], 106%; under setting [14], 94.5%; under setting [15], 105%; under setting [16], 108%; under setting [17], 104%; under setting [18], 103%. Besides, the viability, T/C is, setting by setting: under setting [19], 98.1%; under setting [20], 100%; under setting [21], 93.5%; under setting [22], 111%; under setting [23], 111%; under setting [24], 107%. Also, the viability, T/C under setting [25] is 95.7%; the viability, T/C under setting [26] is 101%; the viability, T/C under setting [27] is 106%; the viability, T/C under setting [28] was 109%; the viability, T/C under setting [29] is 103%; the viability, T/C under setting [30] is 105%. The viability, T/C was 80% under setting [31]; 90.2% under setting [32]; 94.7% under setting [33]; 84.2% under setting [34]; 89.5% under setting [35]; 79.4% under setting [36]. Besides, the viability, T/C by setting is: under setting [37], 106%; under setting [38], 100%; under setting [39], 112%; under setting [40], 106%; under setting [41], 97.6%; under setting [42], 91.7%.
Regarding `O=c1[nH]cc(F)c(=O)[nH]1`, the viability, T/C (compound 0.0316 µM) was 97% and 94.6% and 100%; the viability, T/C (compound 0.1 µM) is 103% and 94.6% and 105%; the viability, T/C (compound 0.316 µM) is 106% and 95.4% and 101%; the viability, T/C (compound 1 µM) was 96.8% and 100% and 101%; the viability, T/C (compound 3.16 µM) is 106% and 94.5% and 104%; the viability, T/C (compound 10 µM) was 104% and 106% and 103%. Moreover, the IC50 (curve of compound) was greater than 10000 nM.
Take `CC[C@@]1(O)C(=O)OCc2c1cc1n(c2=O)Cc2cc3c(CN(C)C)c(O)ccc3nc2-1`: the viability, T/C is 104% and 102% and 101% (compound 0.000999 µM); 105% (2×) and 93.9% (compound 0.00316 µM); 108% and 96.2% and 102% (compound 0.00999 µM); 80.7% and 57% and 63% (compound 0.0316 µM); 24.7% and 19.6% and 22% (compound 0.0999 µM); 14.6% and 9.66% and 10.5% (compound 0.316 µM). Also, the half-inhibitory concentration (IC50) (curve of compound) is 59.3 nM and 39.5 nM and 45.8 nM.
